According to patent publication US6500443B1, “Delivery of a sacrificial substrate to inhibit protease permeation into skin” (Kimberly-Clark Worldwide, Inc., priority 1999, dated 2002):

Settings: excised skins, modified FRANZ diffusion cells, over a 36 hour period, from treated fabric
Method: The fabrics were then tested for topical delivery of the zinc salt using excised skins in modified FRANZ diffusion cells. The amount of zinc accumulating and penetrating the skin was determined over a 36 hour period.

zinc sulfate monohydrate
accumulation of zinc in skin: 1311 μg/g dry weight of skin
penetration of zinc through skin: 3.2 μg/cm^2/hr
